One series in a line: in vitro. As to conditions: human, plasma, pH 7.4.
Another series concerns MAO-B. The arrangement: method as in PMID 19168123. As to conditions: isolated compound at 10 µM; cited from earlier work.
Another series addresses T1, recombinant human MAO-A (Homo sapiens, UniProt P21397).
T1 sequence (P21397 1-527): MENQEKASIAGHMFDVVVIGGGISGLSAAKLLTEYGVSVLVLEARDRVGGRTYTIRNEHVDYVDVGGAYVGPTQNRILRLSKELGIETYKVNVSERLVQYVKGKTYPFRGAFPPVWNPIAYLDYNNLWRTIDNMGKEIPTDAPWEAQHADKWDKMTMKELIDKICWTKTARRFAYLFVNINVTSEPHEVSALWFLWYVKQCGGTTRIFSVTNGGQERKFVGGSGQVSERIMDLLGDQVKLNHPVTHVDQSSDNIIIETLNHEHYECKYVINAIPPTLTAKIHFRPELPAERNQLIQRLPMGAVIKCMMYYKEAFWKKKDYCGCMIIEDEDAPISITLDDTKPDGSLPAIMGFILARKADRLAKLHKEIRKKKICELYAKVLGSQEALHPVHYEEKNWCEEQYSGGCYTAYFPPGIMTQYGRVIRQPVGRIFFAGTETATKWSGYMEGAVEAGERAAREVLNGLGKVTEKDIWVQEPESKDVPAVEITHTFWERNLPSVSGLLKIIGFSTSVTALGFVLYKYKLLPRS
As to the kind of experiment: MAO inhibition, kynuramine oxidation to 4-hydroxyquinoline. The series is classed as biochemical. On the procedure:
(§1) A total of 99 µL of substrate working solution was added into 1.1 mL incubation tubes and then 1 µL of the test compound/control working solution or DMSO (vehicle control) was added, mixed well, and pre-incubated at 37 °C for 5 min. MAO-A (0.005 mg/mL) and MAO-B (0.02 mg/mL) were pre-incubated in the working solution at 37 °C for 5 min. A total of 100 µL of pre-incubated MAO-A or MAO-B working solution was added to incubation tubes to start the reaction, mixed well, and incubated at 37 °C for 15 min. […] All samples were centrifuged at 4000 rpm at 4 °C for 15 min, then 100 µL supernatant with 100 µL of water was transferred for LC-MS/MS analysis.
(§2) Enzyme activity (%) = PAR with compound/PAR vehicle × 100.
(§3) The oxidation of kynuramine to 4-hydroxyquinoline generated was the in vitro marker reaction of MAO-A and MAO-B enzymes.

The next series addresses T2, recombinant human MAO-B (Homo sapiens, UniProt P27338).
T2 construct: purchased Corning
T2 sequence (P27338 1-520): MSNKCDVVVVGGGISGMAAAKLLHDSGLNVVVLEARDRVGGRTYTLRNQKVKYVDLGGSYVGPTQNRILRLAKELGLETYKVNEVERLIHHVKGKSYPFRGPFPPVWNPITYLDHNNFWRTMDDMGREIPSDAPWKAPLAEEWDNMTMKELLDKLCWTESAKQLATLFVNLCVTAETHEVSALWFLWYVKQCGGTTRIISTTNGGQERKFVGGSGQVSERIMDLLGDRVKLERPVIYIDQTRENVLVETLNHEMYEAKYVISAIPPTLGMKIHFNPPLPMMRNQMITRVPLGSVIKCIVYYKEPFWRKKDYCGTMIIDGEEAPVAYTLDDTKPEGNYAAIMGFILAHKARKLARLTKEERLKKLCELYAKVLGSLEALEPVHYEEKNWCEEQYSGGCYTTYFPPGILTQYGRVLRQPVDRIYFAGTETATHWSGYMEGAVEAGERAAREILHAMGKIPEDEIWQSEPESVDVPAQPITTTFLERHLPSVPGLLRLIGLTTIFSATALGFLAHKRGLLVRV
The description is as above. The series is classed as biochemical. Here is the method: as §1, §2, §3

Series [1] deals with T3, CYP2C19 (Homo sapiens, UniProt P33261). The following applies: microsomes.
Procedure: (§4) Incubation without 30 min pre-incubation, 178.5 µL of liver microsomes working was pre-incubated in a 37 °C water bath for 30 min. After the pre-incubation, 1.5 μL of test compound or control compound working solution, 60 μL of substrate working solution, and 60 μL of NADPH working solution were added; then, the reaction mixture was mixed by pipetting up and down and then incubated at 37 °C for 10 min. Incubation with 30 min pre-incubation. Next, 1.5 μL of test compound or control compound working solutions and 60 μL of NADPH working solution were added into 178.5 μL of liver microsome working solution, then the reaction mixture was mixed by pipetting up and down and then pre-incubated at 37 °C for 30 min. […]
(§5) For competitive and time-dependent CYP inhibition, the peak area ratios (PAR) of analyte/internal standard were used to semi-quantitatively determine the concentration of acetaminophen (CYP1A2 activity), 4’-hydroxydiclofenac (CYP2C9), 4’-hydroxymephenytoin (CYP2C19), dextrorphan (CYP2D6), 1’-hydroxymidazolam (CYP3A4), 6β-hydroxytestosterone (CYP3A4), hydroxybupropion (CYP2B6), and N-desethylamodiaquine (CYP2C8), with terfenadine as the internal standard by LC-MS/MS method. The HPLC-MS system utilized an Acquity UPLC system and Sciex API 4000 mass spectrometer in ESI positive mode, with quantitation employing MRM. […]
Series [2] addresses T4, CYP2B6 (Homo sapiens, UniProt P20813).
T4 sequence (P20813 1-491): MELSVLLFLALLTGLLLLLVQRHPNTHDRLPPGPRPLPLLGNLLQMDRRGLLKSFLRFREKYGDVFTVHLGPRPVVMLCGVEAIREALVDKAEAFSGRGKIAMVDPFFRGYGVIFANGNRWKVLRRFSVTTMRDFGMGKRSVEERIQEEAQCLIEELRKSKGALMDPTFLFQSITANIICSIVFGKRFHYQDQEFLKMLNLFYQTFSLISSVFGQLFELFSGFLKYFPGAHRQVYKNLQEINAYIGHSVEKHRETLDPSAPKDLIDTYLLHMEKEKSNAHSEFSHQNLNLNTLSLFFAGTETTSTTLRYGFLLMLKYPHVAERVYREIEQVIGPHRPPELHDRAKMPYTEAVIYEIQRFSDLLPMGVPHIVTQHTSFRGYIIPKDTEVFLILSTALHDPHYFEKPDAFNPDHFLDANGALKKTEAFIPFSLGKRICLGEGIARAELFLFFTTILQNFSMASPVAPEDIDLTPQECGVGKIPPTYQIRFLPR
As to the kind of experiment: biochemical.
Procedure: as §4, §5

The test system of series [3] is CYP2B6. The series is described as follows: in vitro. The following applies: human; for Mean Fold Induction: 48 h. On the procedure:
The sandwich medium was removed, and the hepatocytes were treated with incubation solutions containing salidroside (1, 5, 10, and 30 µM), vehicle (0.1% DMSO), or positive inducers in triplicate for 24 h after the cultures were established. The incubation solution was aspirated and replaced with incubation solution containing the same concentrations of salidroside, vehicle, or positive inducers for an additional 24 h. The total treatment period was 48 h. After the treatment period of 48 h, the incubation solution was aspirated. Hepatocytes were washed twice with pre-warmed HBSS containing 10 mM HEPES (HBSS I) and then the remaining solution was aspirated. Hepatocytes were washed once with pre-warmed HBSS I and incubated with 140 μL of RLT (lysis buffer from RNeasy 96 Kit) supplemented with 1% β-mercaptoethanol. Plates were then stored at −70 °C in a freezer until RNA analysis. Before RNA extraction, the frozen plate was thawed, and cell lysates were transferred to 96-well plates. RNA isolation was performed using a QIAcube RNA extraction system. Reverse transcription was performed to obtain cDNA. Quantification of the selective genes by real-time quantitative polymerase chain reaction (qPCR) was performed with TaqMan universal PCR Master Mix on the Bio-rad CFX384 TouchTM Real-Time PCR System. The relative change in the mRNA level of the selected target genes induced by each test compound was expressed in relation to the vehicle control sample, and fold changes in gene expression were determined by the ΔΔCt method.

In series [4] the target is T3, CYP2C19. As to the kind of experiment: Time-dependent inhibition (IC50 shift) in human liver microsomes. In general terms: Microsomes from liver hold many membrane-bound enzymes, among them those of drug oxidation.
Procedure: as §4, §5

T3 sequence (P33261 whole entry): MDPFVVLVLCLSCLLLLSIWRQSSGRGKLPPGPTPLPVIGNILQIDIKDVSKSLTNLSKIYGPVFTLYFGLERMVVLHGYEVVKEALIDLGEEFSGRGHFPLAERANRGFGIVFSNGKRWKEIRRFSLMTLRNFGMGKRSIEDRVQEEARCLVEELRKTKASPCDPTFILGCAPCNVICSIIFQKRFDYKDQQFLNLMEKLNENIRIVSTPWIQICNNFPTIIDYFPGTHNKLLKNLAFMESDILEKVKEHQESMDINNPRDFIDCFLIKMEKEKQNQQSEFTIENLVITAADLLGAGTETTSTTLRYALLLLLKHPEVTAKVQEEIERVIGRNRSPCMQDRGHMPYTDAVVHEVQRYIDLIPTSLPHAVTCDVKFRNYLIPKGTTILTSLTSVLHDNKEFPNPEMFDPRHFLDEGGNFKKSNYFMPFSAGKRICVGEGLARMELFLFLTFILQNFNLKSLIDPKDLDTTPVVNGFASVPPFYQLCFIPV

Usually fraction unbound stands for the share of the substance not bound to proteins or other matrix. A low value points to little free substance. Broadly, the IC50 is the concentration needed to halve the response being measured. The term inhibition denotes the change of the read-out against control, counted positive when it falls. As usually defined, the fold induction is the ratio of treated to control signal. In the series “in vitro”, `OC[C@H]1O[C@@H](OCCc2ccc(O)cc2)[C@H](O)[C@@H](O)[C@@H]1O` [Salidroside] returned a fraction unbound at 5 h, 5 µM of 0.985. In addition, the “inhibition of MAO-B” value in the series on MAO-B is given as 35.8%. Besides, the concentration for half-maximal inhibition (IC50) at recombinant human MAO-A was over 50 µM; on recombinant human MAO-B (substrate kynuramine (20 µM), mean of N = 2), over 50 µM; against CYP2B6 [2] it was over 50 µM; on CYP2C19 [4], over 50 µM. Further, the inhibition at 50 µM at recombinant human MAO-A (at 50 µM, read-out: maximum % inhibition of MAO-A) was found to be 13.3%; on recombinant human MAO-B (at 50 µM, read-out: maximum % inhibition of MAO-B), 22.5%. For the same compound, the “IC50 Shift” value on CYP2C19 [1] is “no shift”. Further, the results for the “Mean Fold Induction” value in the series with CYP2B6 [3] (1 µM) and in the series with CYP2B6 [3] (10 µM) were 0.6 fold and 1.1 fold, respectively. In the series with CYP2B6 [3] (Mean Fold Induction), the fold induction at 48 h, 1 µM turned out to be 0.9. Besides, the fold induction at 48 h, 3 µM with CYP2B6 [3] (Mean Fold Induction) amounted to 1.2. Besides, in the series with CYP2B6 [3] (Mean Fold Induction), the fold induction at 48 h, 10 µM was determined as 0.8.
